According to patent US10376520B2, “Methods for the treatment of cardiovascular disorders” (Galapagos NV, priority 2015, dated 2019):

What was measured:
Type in all cases: in vivo, human
[1] = system: RA patients; experiment: Total cholesterol determination, Study 4 (4 weeks study in RA patients with inadequate response to methotrexate); conditions: for [Total cholesterol] levels: Study 4
Source text: Randomized, double-blind, placebo-controlled, multicenter, phase II study of Compound 1 (dosed as a [Compound 1:HCl:3H2O]) to compare four dose regimens versus placebo, in combination with methotrexate, administered for 4 weeks in the treatment of subjects with active rheumatoid arthritis who have an inadequate response to methotrexate alone.
(§1) Randomized double-blind, placebo-controlled add on study in subjects with active RA who have an inadequate response to MTX monotherapy, in combination with methotrexate, administered for 4 weeks in the treatment of subjects with active rheumatoid arthritis who have an inadequate response to methotrexate alone.
90 subjects randomized to one of 4 dose regimens of Compound 1 (dosed as a [Compound 1:HCl:3H2O]) or placebo, on top of their stable dose of MTX. Thus, each of the 4 different doses of Compound 1 (dosed as a [Compound 1:HCl:3H2O]) and placebo groups has 18 subjects.
(§2) Compound 1 (dosed as a [Compound 1:HCl:3H2O]) capsules administered orally in 30 mg, 75 mg, 150 mg, or 300 mg doses per day for 4 weeks.
This method is based on the determination of Δ^4 cholestenone after enzymatic cleavage of the cholesterol ester by cholesterol esterase, conversion of cholesterol by cholesterol oxidase, and subsequent measurement by the Trinder reaction of the hydrogen peroxide formed (Allain et al., 1974).
Cholesterol esters are cleaved by the action of cholesterol esterase to yield free cholesterol and fatty acids. Cholesterol oxidase then catalyzes the oxidation of cholesterol to cholest-4-en-3-one and hydrogen peroxide. In the presence of peroxidase, the hydrogen peroxide formed effects the oxidative coupling of phenol and 4-aminophenazone to form a red quinone-imine dye. The color intensity of the dye formed is directly proportional to the cholesterol concentration. It is determined by measuring the increase in absorbance.
Human serum and plasma samples cholesterol determination was done on a Roche/Hitachi Cobas c 701/702 system which automatically calculate the analyte concentration of each sample.

[2] = system: healthy volunteers, and patients suffering from inflammatory diseases; experiment: Lipid profile after oral administration of Compound 1 in humans (summary over the studies)
Description: When Compound 1 was administered orally in humans, an unexpected change in the lipid profile was observed.
In contrast, whereas Compound 1 raised the low [total cholesterol] levels, an unexpected disproportionate rise in blood of [HDL] vs [LDL] was observed. In particular, [HDL] levels of 5-23% compared to initial levels were seen. Moreover, this rise in [HDL] was substantially higher than the corresponding increases in [LDL] levels. In particular between 1.1 and 4 fold higher increases in [HDL] vs. [LDL] were seen.
Typically, in a recent treatment study with Tofacitinib, a JAK inhibitor for 6 weeks at a dose of 10 mg bid in RA patient, the atherogenic index was unchanged before and after treatment at about 3.5 (Charles-Schoeman et al., 2015) thus leaving the patient at an increased cardiovascular risk before and after treatment.
Furthermore, this effect was sustained over at least 12 weeks, and at least 24 weeks and were observed over a dose range of 50-200 mg administered either twice daily (b.i.d) or once a day (q.d.).
Additionally, this effect was seen both in healthy volunteers, and patients suffering from inflammatory diseases (for example RA and Crohn's disease).

[3] = system: RA patients; experiment: Plasma ApoC-II concentration (ELISA), Study 4; conditions: 4 weeks change from baseline
Description: as §1, §2
Plasma ApoC-II and ApoC-III concentrations are determined using commercial available ELISA kits from Abnova (9th Floor, No. 108, Jhouzih St., Neihu District. Taipei City, 114, Taiwan) according to manufacturer's instruction. apoC2: catalogue number KA0464, lot number used: 08871403. apoC3: catalogue number KA0465, lot number used: 02961525.

[4] = system: RA patients; experiment: Plasma Serum Amyloid A (SAA) concentration (ELISA), Study 4; conditions: for SAA level, 4 weeks CFB: 4 weeks change from baseline
Description: as §1, §2
Plasma SAA concentration was determined using a commercial available Novex ELISA kit from Life technologies (Bleiswijk, The Netherlands) according to manufacturer's instruction. Catalogue number KHA0011, lot number used: 1433688A.

SMILES: O=C(Nc1nc2cccc(-c3ccc(CN4CCS(=O)(=O)CC4)cc3)n2n1)C1CC1 [Compound 1, cyclopropanecarboxylic acid {5-[4-(1,1-dioxo-thiomorpholin-4-ylmethyl)-phenyl]-[1,2,4]triazolo[1,5-a]pyridin-2yl}-amide]
- [Total cholesterol] % Mean % variation vs baseline after 4 weeks ([1]; 30 mg qd): 6%
- [Total cholesterol] % Mean % variation vs baseline after 4 weeks ([1]; 75 mg qd): 5%
- [Total cholesterol] % Mean % variation vs baseline after 4 weeks ([1]; 150 mg qd): 3%
- [Total cholesterol] % Mean % variation vs baseline after 4 weeks ([1]; 300 mg qd): 17%
- [Total cholesterol] levels ([1]; 30 mg q.d., baseline): 5.19 mmol/L
- [Total cholesterol] levels ([1]; 30 mg q.d., week 1): 5.31 mmol/L
- [Total cholesterol] levels ([1]; 30 mg q.d., week 2): 5.25 mmol/L
- [Total cholesterol] levels ([1]; 30 mg q.d., week 3): 5.32 mmol/L
- [Total cholesterol] levels ([1]; 30 mg q.d., week 4): 5.50 mmol/L
- [Total cholesterol] levels ([1]; 75 mg q.d., baseline): 4.99 mmol/L
- [Total cholesterol] levels ([1]; 75 mg q.d., week 1): 5.04 mmol/L
- [Total cholesterol] levels ([1]; 75 mg q.d., week 2): 5.07 mmol/L
- [Total cholesterol] levels ([1]; 75 mg q.d., week 3): 5.08 mmol/L
- [Total cholesterol] levels ([1]; 75 mg q.d., week 4): 5.18 mmol/L
- [Total cholesterol] levels ([1]; 150 mg q.d., baseline): 4.77 mmol/L
- [Total cholesterol] levels ([1]; 150 mg q.d., week 1): 4.94 mmol/L
- [Total cholesterol] levels ([1]; 150 mg q.d., week 2): 4.85 mmol/L
- [Total cholesterol] levels ([1]; 150 mg q.d., week 3): 4.89 mmol/L
- [Total cholesterol] levels ([1]; 150 mg q.d., week 4): 4.96 mmol/L
- [Total cholesterol] levels ([1]; 300 mg q.d., baseline): 4.56 mmol/L
- [Total cholesterol] levels ([1]; 300 mg q.d., week 1): 5.13 mmol/L
- [Total cholesterol] levels ([1]; 300 mg q.d., week 2): 5.21 mmol/L
- [Total cholesterol] levels ([1]; 300 mg q.d., week 3): 5.23 mmol/L
- [Total cholesterol] levels ([1]; 300 mg q.d., week 4): 5.33 mmol/L
- rise in [HDL] levels compared to initial levels ([2]; administered orally in humans): 5-23%
- atherogenic index ([2]; doses ranging from 50 mg to 200 mg (once or twice daily) for a period of at least 4 weeks): drop of the atherogenic index
- ApoC-II level, 4 weeks CFB ([3]; 30 mg q.d.): 11.2%
- ApoC-II level, 4 weeks CFB ([3]; 75 mg q.d.): 23.3%
- ApoC-II level, 4 weeks CFB ([3]; 150 mg q.d.): 8.6%
- ApoC-II level, 4 weeks CFB ([3]; 300 mg q.d.): 37.0%
- SAA level, 4 weeks CFB ([4]; 30 mg q.d.): −15.4%
- SAA level, Baseline ([4]; 30 mg q.d.): 935.4 ng/mL
- SAA level, week 4 ([4]; 30 mg q.d.): 436.2 ng/mL
- SAA level, 4 weeks CFB ([4]; 75 mg q.d.): −13.5%
- SAA level, Baseline ([4]; 75 mg q.d.): 883.7 ng/mL
- SAA level, week 4 ([4]; 75 mg q.d.): 201.3 ng/mL
- SAA level, 4 weeks CFB ([4]; 150 mg q.d.): −56.7%
- SAA level, Baseline ([4]; 150 mg q.d.): 621.3 ng/mL
- SAA level, week 4 ([4]; 150 mg q.d.): 388.5 ng/mL
- SAA level, 4 weeks CFB ([4]; 300 mg q.d.): −62.0%
- SAA level, Baseline ([4]; 300 mg q.d.): 555.6 ng/mL
- SAA level, week 4 ([4]; 300 mg q.d.): 43.2 ng/mL
